Laboratory results: PubChem BioAssay (NCI)
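Values below derive from 48-hour exposures of cells grown in 96-well plates, with endpoints linearly interpolated between the two concentrations bracketing the appropriate inhibition level. At the GI50, growth is halved. TGI: concentration producing complete growth inhibition.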

Columns and labels:
Experiment in all cases: inhibition of tumour cell growth, NCI panel, 48 h
SF-539 CNS = tested on: SF-539 CNS
A498 renal = tested on: A498 renal
HT29 colon = tested on: HT29 colon
HL-60(TB) leukemia = tested on: HL-60(TB) leukemia
EKVX NSCLC = tested on: EKVX NSCLC
TK-10 renal = tested on: TK-10 renal
SNB-19 CNS = tested on: SNB-19 CNS
RPMI-8226 leukemia = tested on: RPMI-8226 leukemia
NCI-H23 lung = tested on: NCI-H23 lung
SK-MEL-5 melanoma = tested on: SK-MEL-5 melanoma

| SMILES | TGI (SF-539 CNS) | TGI (A498 renal) | TGI (HT29 colon) | TGI (HL-60(TB) leukemia) | TGI (EKVX NSCLC) | TGI (TK-10 renal) | TGI (SNB-19 CNS) | TGI (RPMI-8226 leukemia) | TGI (NCI-H23 lung) | TGI (SK-MEL-5 melanoma) | GI50 (SF-539 CNS) | GI50 (A498 renal) | GI50 (HT29 colon) | GI50 (HL-60(TB) leukemia) | GI50 (EKVX NSCLC) | GI50 (TK-10 renal) | GI50 (SNB-19 CNS) | GI50 (RPMI-8226 leukemia) | GI50 (NCI-H23 lung) | GI50 (SK-MEL-5 melanoma) |
| --- | --- | --- | --- | --- | --- | --- | --- | --- | --- | --- | --- | --- | --- | --- | --- | --- | --- | --- | --- | --- |
| COc1cc2ccccc2c2cc([N+](=O)[O-])oc12 | 7.75 µM | 0.342 µM | 21.9 µM | > 31.2 µM | 14.1 µM | 5.44 µM | > 55.4 µM | 14.7 µM | 4.18 µM | 0.293 µM | – | – | – | – | – | – | – | – | – | – |
| CC[C@@]1(OC(=O)CN)C(=O)OCc2c1cc1n(c2=O)Cc2cc3cc4c(cc3nc2-1)OCO4 | < 0.01 µM | 0.126 µM | – | – | > 100 µM | 9.21 µM | 92.8 µM | 0.582 µM | < 0.0128 µM | 0.134 µM | < 0.01 µM | < 0.01 µM | < 0.01 µM | < 0.01 µM | 0.0735 µM | 0.108 µM | < 0.01 µM | < 0.0104 µM | < 0.01 µM | < 0.01 µM |
| Cc1cc(N2CCN(C)CC2)nc(NCc2cc(Nc3ccnc4cc(Cl)ccc34)ccc2F)n1 | 3.24 µM | 4.03 µM | 3.38 µM | 3.96 µM | > 100 µM | 5.82 µM | > 100 µM | 5.48 µM | > 100 µM | 2.75 µM | 1.69 µM | 1.52 µM | 1.24 µM | 1.86 µM | 2.5 µM | 2.25 µM | 3.32 µM | 2.2 µM | 3.46 µM | 1.44 µM |
| Cc1ccc(C2CC(c3ccc([N+](=O)[O-])cc3)=Nc3ccccc3S2)cc1 (stereo not drawn) | 71.9 µM | 77.1 µM | 95.5 µM | 43.4 µM | > 100 µM | > 100 µM | > 100 µM | 44.9 µM | 77.4 µM | 38 µM | – | – | – | – | – | – | – | – | – | – |
| N#CC(C#N)=Cc1c(-c2ccccc2)[nH]c2ccccc12 | 9.12 µM | 22.4 µM | > 53.9 µM | > 20.2 µM | > 86.4 µM | > 75.1 µM | > 100 µM | 4.62 µM | > 66.3 µM | 12.8 µM | 2.1 µM | 2.97 µM | 0.526 µM | 1.62 µM | 5.81 µM | 5.23 µM | 5.71 µM | 0.564 µM | 4.65 µM | 1.08 µM |
| N=CCCN(CCC=N)c1ccc(/C=C2\CN(NC(=O)c3ccc(Cl)cc3)C(c3ccccc3)=N2)cc1 | > 100 µM | > 100 µM | > 100 µM | > 100 µM | > 100 µM | > 100 µM | > 100 µM | 53.6 µM | > 100 µM | > 100 µM | – | – | – | – | – | – | – | – | – | – |
| O=S(=O)(Nc1cc(Br)c(O)c2ccccc12)c1ccc(F)cc1 | 5.48 µM | 33.3 µM | > 100 µM | 6.95 µM | 7.52 µM | 32.7 µM | 28 µM | 20.1 µM | 7.87 µM | 3.35 µM | 2.33 µM | 17.3 µM | 18.2 µM | 2.61 µM | 2.64 µM | 18.4 µM | 9.35 µM | 2.94 µM | 2.8 µM | 1.79 µM |
| NC1=NC(c2ccc(Cl)cc2)N(c2ccc(S(=O)(=O)Nc3ncccn3)cc2)C(N)=N1 (stereo not drawn) | > 100 µM | > 100 µM | > 100 µM | 1.08 µM | > 100 µM | > 100 µM | > 100 µM | > 100 µM | > 100 µM | > 100 µM | – | – | – | – | – | – | – | – | – | – |
| N#CCCN(CCC#N)C(=O)c1cccc(C(=O)N(CCC#N)CCC#N)c1 | > 55.3 µM | > 100 µM | 35.2 µM | > 73.3 µM | > 63.9 µM | > 100 µM | > 100 µM | > 85.1 µM | > 56 µM | > 100 µM | – | – | – | – | – | – | – | – | – | – |
| [C-]#[O+].[Cl][Sn]([Cl])[Cl].[Cl][Sn]([Cl])[Cl].[Pt].c1ccc([PH+](c2ccccc2)c2ccccc2)cc1.c1ccc([PH+](c2ccccc2)c2ccccc2)cc1 | > 100 µM | 50.1 µM | > 100 µM | 69.1 µM | > 100 µM | 52.3 µM | > 100 µM | 80.3 µM | 37 µM | > 100 µM | 92.3 µM | 18.8 µM | > 100 µM | 25.4 µM | 28 µM | 25.5 µM | 34.5 µM | 27.7 µM | 13.7 µM | 31.5 µM |
| COc1cc(/C=N/Nc2ncnc3c2cnn3C(C)C)ccc1O | 15.2 µM | 24.8 µM | > 25 µM | 11.9 µM | > 25 µM | 21.3 µM | > 25 µM | > 17.8 µM | > 25 µM | > 25 µM | 4.76 µM | 8.58 µM | 8.18 µM | 4.07 µM | 11.6 µM | 8.3 µM | 17 µM | 9.76 µM | 6.05 µM | 8.1 µM |
| Cc1nc2ccccc2c(=O)n1/N=C(\N=Nc1cc(Cl)ccc1Cl)c1cccc(-c2ccco2)c1 | > 100 µM | > 100 µM | > 100 µM | > 10 µM | > 100 µM | > 100 µM | > 100 µM | > 100 µM | > 100 µM | > 100 µM | – | – | – | – | – | – | – | – | – | – |
| O=C(c1ccccc1)C(c1ccccc1)C1(O)C(=O)Nc2ccccc21 (stereo not drawn) | > 100 µM | > 100 µM | > 100 µM | > 100 µM | > 100 µM | > 100 µM | > 100 µM | > 100 µM | > 100 µM | > 100 µM | – | – | – | – | – | – | – | – | – | – |
